Experimental data: article PMC6409085, “Three odorant-binding proteins are involved in the behavioral response of Sogatella furcifera to rice plant volatiles” (PeerJ, 2019)
Where “and” joins values, the source holds several entries; their conditions need not be identical. Identical values can stand only once.

How the values were obtained:
Test in all cases: biochemical
Format in all cases: binding
SfurOBP3 = SfurOBP3 (Sogatella furcifera, UniProt V5T818); conditions: for Fluorescence competitive binding assay, fluorescence intensity: OBP3, three replicate columns
Outline: (§1)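 Fluorescence competitive binding used 2.0 µM SfurOBP and 2.0 µM 1-NPN reporter in 50 mM Tris-HCl, pH 7.4, with odorants at 2-20 µM. Fluorescence was read 2 min after adding the odorant (excitation 337 nm, emission 390-490 nm), in triplicate. Ki was calculated from IC50 as IC50/(1 + [1-NPN]/K1-NPN).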

SfurOBP11 = SfurOBP11 (Sogatella furcifera, UniProt V5T6E3)
Outline: as §1

SfurOBP1 = SfurOBP1 (Sogatella furcifera, UniProt V5T8N5); conditions: for Fluorescence competitive binding assay, fluorescence intensity: OBP1, three replicate columns
Outline: as §1

SfurOBP2 = SfurOBP2 (Sogatella furcifera, UniProt V5T759)
Outline: as §1

SfurOBP3, sequence (V5T818 entry or part of it): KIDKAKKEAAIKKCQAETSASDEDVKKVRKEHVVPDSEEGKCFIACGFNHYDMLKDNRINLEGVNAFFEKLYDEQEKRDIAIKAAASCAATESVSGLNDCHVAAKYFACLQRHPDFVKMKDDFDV
SfurOBP1, sequence (V5T8N5 entry or part of it): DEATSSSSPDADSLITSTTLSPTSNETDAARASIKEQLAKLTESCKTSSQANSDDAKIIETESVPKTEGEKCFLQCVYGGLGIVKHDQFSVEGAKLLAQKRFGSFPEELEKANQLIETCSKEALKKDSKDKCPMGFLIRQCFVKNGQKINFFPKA
SfurOBP2, sequence (V5T759 entry or part of it): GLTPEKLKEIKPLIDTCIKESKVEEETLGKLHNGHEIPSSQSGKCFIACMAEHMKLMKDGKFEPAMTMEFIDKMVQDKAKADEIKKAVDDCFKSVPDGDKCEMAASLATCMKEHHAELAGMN
SfurOBP11, sequence (V5T6E3 entry or part of it): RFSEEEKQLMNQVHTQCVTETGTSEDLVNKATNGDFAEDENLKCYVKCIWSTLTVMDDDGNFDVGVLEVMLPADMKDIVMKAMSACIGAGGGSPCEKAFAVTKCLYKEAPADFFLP

Q: Which “Fluorescence competitive binding assay, fluorescence intensity” value (SfurOBP3; ligand concentration 2) does the source give for `CCCCCCCCCCCCCCCCCC` [n-octadecane] here?
A: 44756 and 46756 and 45756

Q: What about the “Fluorescence competitive binding assay, fluorescence intensity” value (SfurOBP3; ligand concentration 4) of the same compound?
A: 44765 and 44970 and 45189

Q: What about the “Fluorescence competitive binding assay, fluorescence intensity” value (SfurOBP3; ligand concentration 6) of the same compound?
A: 56655 and 51780 and 54218

Q: What about the “Fluorescence competitive binding assay, fluorescence intensity” value (SfurOBP3; ligand concentration 8) of the same compound?
A: 56206 and 55200 and 54212

Q: What about the “Fluorescence competitive binding assay, fluorescence intensity” value (SfurOBP3; ligand concentration 10) of the same compound?
A: 105189 and 108079 and 109909

Q: And the “Fluorescence competitive binding assay, fluorescence intensity” value (SfurOBP3; ligand concentration 12)?
A: 109051 and 110510 and 104814

Q: What about the “Fluorescence competitive binding assay, fluorescence intensity” value (SfurOBP3; ligand concentration 14) of the same compound?
A: 104242 and 103301 and 109995

Q: What about the “Fluorescence competitive binding assay, fluorescence intensity” value (SfurOBP3; ligand concentration 16) of the same compound?
A: 96286 and 114978 and 85581

Q: What about the “Fluorescence competitive binding assay, fluorescence intensity” value (SfurOBP3; ligand concentration 18) of the same compound?
A: 113407 and 123942 and 62401

Q: And the “Fluorescence competitive binding assay, fluorescence intensity” value (SfurOBP3; ligand concentration 20)?
A: 54560 and 56227 and 56504

Q: What about the IC50 (SfurOBP3; SfurOBP3, protein and 1-NPN both 2.0 µM, competitor 2-20 µM, read-out: IC50) of the same compound?
A: > 20 µM

Q: And the IC50 (SfurOBP11; SfurOBP11, protein and 1-NPN both 2.0 µM, competitor 2-20 µM, read-out: IC50)?
A: > 20 µM

Q: What about the “Fluorescence intensity, fluorescence competitive binding assay, OBP11” value (“Fluorescence intensity … OBP11” below) (SfurOBP11; ligand concentration 2, replicate 1) of the same compound?
A: 31124

Q: What about the “Fluorescence intensity … OBP11” value (SfurOBP11; ligand concentration 2, replicate 2) of the same compound?
A: 31165

Q: And the “Fluorescence intensity … OBP11” value (SfurOBP11; ligand concentration 2, replicate 3)?
A: 31082

Q: What about the “Fluorescence intensity … OBP11” value (SfurOBP11; ligand concentration 4, replicate 1) of the same compound?
A: 31010

Q: What about the “Fluorescence intensity … OBP11” value (SfurOBP11; ligand concentration 4, replicate 2) of the same compound?
A: 31130

Q: What about the “Fluorescence intensity … OBP11” value (SfurOBP11; ligand concentration 4, replicate 3) of the same compound?
A: 30899

Q: What about the “Fluorescence intensity … OBP11” value (SfurOBP11; ligand concentration 6, replicate 1) of the same compound?
A: 26414

Q: And the “Fluorescence intensity … OBP11” value (SfurOBP11; ligand concentration 6, replicate 2)?
A: 32905

Q: And the “Fluorescence intensity … OBP11” value (SfurOBP11; ligand concentration 6, replicate 3)?
A: 29894

Q: And the “Fluorescence intensity … OBP11” value (SfurOBP11; ligand concentration 8, replicate 1)?
A: 27729

Q: What about the “Fluorescence intensity … OBP11” value (SfurOBP11; ligand concentration 8, replicate 2) of the same compound?
A: 29971

Q: What about the “Fluorescence intensity … OBP11” value (SfurOBP11; ligand concentration 8, replicate 3) of the same compound?
A: 31279

Q: And the “Fluorescence intensity … OBP11” value (SfurOBP11; ligand concentration 10, replicate 1)?
A: 29221

Q: What about the “Fluorescence intensity … OBP11” value (SfurOBP11; ligand concentration 10, replicate 2) of the same compound?
A: 29436

Q: What about the “Fluorescence intensity … OBP11” value (SfurOBP11; ligand concentration 10, replicate 3) of the same compound?
A: 31039

Q: What about the “Fluorescence intensity … OBP11” value (SfurOBP11; ligand concentration 12, replicate 1) of the same compound?
A: 26981

Q: What about the “Fluorescence intensity … OBP11” value (SfurOBP11; ligand concentration 12, replicate 2) of the same compound?
A: 32241

Q: And the “Fluorescence intensity … OBP11” value (SfurOBP11; ligand concentration 12, replicate 3)?
A: 28868

Q: What about the “Fluorescence intensity … OBP11” value (SfurOBP11; ligand concentration 14, replicate 1) of the same compound?
A: 27521

Q: And the “Fluorescence intensity … OBP11” value (SfurOBP11; ligand concentration 14, replicate 2)?
A: 30203

Q: And the “Fluorescence intensity … OBP11” value (SfurOBP11; ligand concentration 14, replicate 3)?
A: 30415

Q: And the “Fluorescence intensity … OBP11” value (SfurOBP11; ligand concentration 16, replicate 1)?
A: 28709

Q: And the “Fluorescence intensity … OBP11” value (SfurOBP11; ligand concentration 16, replicate 2)?
A: 28254

Q: And the “Fluorescence intensity … OBP11” value (SfurOBP11; ligand concentration 16, replicate 3)?
A: 29164

Q: And the “Fluorescence intensity … OBP11” value (SfurOBP11; ligand concentration 18, replicate 1)?
A: 29699

Q: What about the “Fluorescence intensity … OBP11” value (SfurOBP11; ligand concentration 18, replicate 2) of the same compound?
A: 28164

Q: What about the “Fluorescence intensity … OBP11” value (SfurOBP11; ligand concentration 18, replicate 3) of the same compound?
A: 26628

Q: And the “Fluorescence intensity … OBP11” value (SfurOBP11; ligand concentration 20, replicate 1)?
A: 26046

Q: And the “Fluorescence intensity … OBP11” value (SfurOBP11; ligand concentration 20, replicate 2)?
A: 24149

Q: And the “Fluorescence intensity … OBP11” value (SfurOBP11; ligand concentration 20, replicate 3)?
A: 23426

Q: What about the “Fluorescence competitive binding assay, fluorescence intensity” value (SfurOBP1; ligand concentration 2 (μM)) of the same compound?
A: 9199 and 7453 and 7122

Q: What about the “Fluorescence competitive binding assay, fluorescence intensity” value (SfurOBP1; ligand concentration 4 (μM)) of the same compound?
A: 8077 and 8108 and 9442

Q: What about the “Fluorescence competitive binding assay, fluorescence intensity” value (SfurOBP1; ligand concentration 6 (μM)) of the same compound?
A: 8157 and 9511 and 12800

Q: What about the “Fluorescence competitive binding assay, fluorescence intensity” value (SfurOBP1; ligand concentration 8 (μM)) of the same compound?
A: 8086 and 8235 and 10013

Q: What about the “Fluorescence competitive binding assay, fluorescence intensity” value (SfurOBP1; ligand concentration 10 (μM)) of the same compound?
A: 9302 and 9657 and 9738

Q: And the “Fluorescence competitive binding assay, fluorescence intensity” value (SfurOBP1; ligand concentration 12 (μM))?
A: 8567 and 10513 and 8676

Q: And the “Fluorescence competitive binding assay, fluorescence intensity” value (SfurOBP1; ligand concentration 14 (μM))?
A: 10345 and 9766 and 9261

Q: What about the “Fluorescence competitive binding assay, fluorescence intensity” value (SfurOBP1; ligand concentration 16 (μM)) of the same compound?
A: 9156 and 9816 and 8326

Q: What about the “Fluorescence competitive binding assay, fluorescence intensity” value (SfurOBP1; ligand concentration 18 (μM)) of the same compound?
A: 11251 and 11486 and 11859

Q: What about the “Fluorescence competitive binding assay, fluorescence intensity” value (SfurOBP1; ligand concentration 20 (μM)) of the same compound?
A: 12749 and 11193 and 9024

Q: And the IC50 (SfurOBP1; SfurOBP1, protein and 1-NPN both 2.0 µM, competitor 2-20 µM, read-out: IC50)?
A: > 20 µM

Q: And the IC50 (SfurOBP2; SfurOBP2, protein and 1-NPN both 2.0 µM, competitor 2-20 µM, read-out: IC50)?
A: > 20 µM

Q: What about the “Fluorescence competitive binding assay, OBP2 (raw fluorescence reading)” value (SfurOBP2; ligand concentration 2 (unit not given), replicate column 1 of 3) of the same compound?
A: 22088

Q: What about the “Fluorescence competitive binding assay, OBP2 (raw fluorescence reading)” value (SfurOBP2; ligand concentration 2 (unit not given), replicate column 2 of 3) of the same compound?
A: 18683

Q: What about the “Fluorescence competitive binding assay, OBP2 (raw fluorescence reading)” value (SfurOBP2; ligand concentration 2 (unit not given), replicate column 3 of 3) of the same compound?
A: 19796

Q: What about the “Fluorescence competitive binding assay, OBP2 (raw fluorescence reading)” value (SfurOBP2; ligand concentration 4 (unit not given), replicate column 1 of 3) of the same compound?
A: 22227

Q: And the “Fluorescence competitive binding assay, OBP2 (raw fluorescence reading)” value (SfurOBP2; ligand concentration 4 (unit not given), replicate column 2 of 3)?
A: 21034

Q: And the “Fluorescence competitive binding assay, OBP2 (raw fluorescence reading)” value (SfurOBP2; ligand concentration 4 (unit not given), replicate column 3 of 3)?
A: 22529

Q: What about the “Fluorescence competitive binding assay, OBP2 (raw fluorescence reading)” value (SfurOBP2; ligand concentration 6 (unit not given), replicate column 1 of 3) of the same compound?
A: 22620

Q: And the “Fluorescence competitive binding assay, OBP2 (raw fluorescence reading)” value (SfurOBP2; ligand concentration 6 (unit not given), replicate column 2 of 3)?
A: 20809

Q: What about the “Fluorescence competitive binding assay, OBP2 (raw fluorescence reading)” value (SfurOBP2; ligand concentration 6 (unit not given), replicate column 3 of 3) of the same compound?
A: 24859

Q: What about the “Fluorescence competitive binding assay, OBP2 (raw fluorescence reading)” value (SfurOBP2; ligand concentration 8 (unit not given), replicate column 1 of 3) of the same compound?
A: 22235

Q: And the “Fluorescence competitive binding assay, OBP2 (raw fluorescence reading)” value (SfurOBP2; ligand concentration 8 (unit not given), replicate column 2 of 3)?
A: 21135

Q: What about the “Fluorescence competitive binding assay, OBP2 (raw fluorescence reading)” value (SfurOBP2; ligand concentration 8 (unit not given), replicate column 3 of 3) of the same compound?
A: 22654

Q: And the “Fluorescence competitive binding assay, OBP2 (raw fluorescence reading)” value (SfurOBP2; ligand concentration 10 (unit not given), replicate column 1 of 3)?
A: 23550

Q: What about the “Fluorescence competitive binding assay, OBP2 (raw fluorescence reading)” value (SfurOBP2; ligand concentration 10 (unit not given), replicate column 2 of 3) of the same compound?
A: 22474

Q: And the “Fluorescence competitive binding assay, OBP2 (raw fluorescence reading)” value (SfurOBP2; ligand concentration 10 (unit not given), replicate column 3 of 3)?
A: 20461

Q: What about the “Fluorescence competitive binding assay, OBP2 (raw fluorescence reading)” value (SfurOBP2; ligand concentration 12 (unit not given), replicate column 1 of 3) of the same compound?
A: 24276

Q: What about the “Fluorescence competitive binding assay, OBP2 (raw fluorescence reading)” value (SfurOBP2; ligand concentration 12 (unit not given), replicate column 2 of 3) of the same compound?
A: 21111

Q: What about the “Fluorescence competitive binding assay, OBP2 (raw fluorescence reading)” value (SfurOBP2; ligand concentration 12 (unit not given), replicate column 3 of 3) of the same compound?
A: 21373

Q: What about the “Fluorescence competitive binding assay, OBP2 (raw fluorescence reading)” value (SfurOBP2; ligand concentration 14 (unit not given), replicate column 1 of 3) of the same compound?
A: 23028

Q: What about the “Fluorescence competitive binding assay, OBP2 (raw fluorescence reading)” value (SfurOBP2; ligand concentration 14 (unit not given), replicate column 2 of 3) of the same compound?
A: 21327

Q: What about the “Fluorescence competitive binding assay, OBP2 (raw fluorescence reading)” value (SfurOBP2; ligand concentration 14 (unit not given), replicate column 3 of 3) of the same compound?
A: 21239

Q: What about the “Fluorescence competitive binding assay, OBP2 (raw fluorescence reading)” value (SfurOBP2; ligand concentration 16 (unit not given), replicate column 1 of 3) of the same compound?
A: 18660

Q: What about the “Fluorescence competitive binding assay, OBP2 (raw fluorescence reading)” value (SfurOBP2; ligand concentration 16 (unit not given), replicate column 2 of 3) of the same compound?
A: 19708

Q: And the “Fluorescence competitive binding assay, OBP2 (raw fluorescence reading)” value (SfurOBP2; ligand concentration 16 (unit not given), replicate column 3 of 3)?
A: 19350

Q: What about the “Fluorescence competitive binding assay, OBP2 (raw fluorescence reading)” value (SfurOBP2; ligand concentration 18 (unit not given), replicate column 1 of 3) of the same compound?
A: 24040

Q: And the “Fluorescence competitive binding assay, OBP2 (raw fluorescence reading)” value (SfurOBP2; ligand concentration 18 (unit not given), replicate column 2 of 3)?
A: 25474

Q: And the “Fluorescence competitive binding assay, OBP2 (raw fluorescence reading)” value (SfurOBP2; ligand concentration 18 (unit not given), replicate column 3 of 3)?
A: 26650

Q: What about the “Fluorescence competitive binding assay, OBP2 (raw fluorescence reading)” value (SfurOBP2; ligand concentration 20 (unit not given), replicate column 1 of 3) of the same compound?
A: 24631

Q: What about the “Fluorescence competitive binding assay, OBP2 (raw fluorescence reading)” value (SfurOBP2; ligand concentration 20 (unit not given), replicate column 2 of 3) of the same compound?
A: 21130

Q: And the “Fluorescence competitive binding assay, OBP2 (raw fluorescence reading)” value (SfurOBP2; ligand concentration 20 (unit not given), replicate column 3 of 3)?
A: 21384
